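96-well plates; 48 h exposure; 5 concentrations. Endpoints by linear interpolation between flanking doses. Not reached: highest tested concentration assigned. GI50 marks 50% less growth. At the TGI there is no net growth.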
Experiments:
Assay in all cases: NCI tumour cell line growth inhibition, 48 h
T-47D breast = system: T-47D breast
HOP-62 NSCLC = system: HOP-62 NSCLC
A498 renal = system: A498 renal
SNB-19 CNS = system: SNB-19 CNS
NCI-H226 lung = system: NCI-H226 lung
COLO 205 colon = system: COLO 205 colon
SF-295 CNS = system: SF-295 CNS
OVCAR-3 ovarian = system: OVCAR-3 ovarian
SF-268 CNS = system: SF-268 CNS
IGROV1 ovarian = system: IGROV1 ovarian
NCI/ADR-RES ovarian = system: NCI/ADR-RES ovarian
SR leukemia = system: SR leukemia
ACHN renal = system: ACHN renal
EKVX NSCLC = system: EKVX NSCLC
NCI-H23 lung = system: NCI-H23 lung
A549 NSCLC = system: A549 NSCLC
OVCAR-5 ovarian = system: OVCAR-5 ovarian
MALME-3M melanoma = system: MALME-3M melanoma
KM12 colon = system: KM12 colon
NCI-H460 lung = system: NCI-H460 lung
CCRF-CEM leukemia = system: CCRF-CEM leukemia
HCT-15 colon = system: HCT-15 colon
HS 578T breast = system: HS 578T breast
U251 CNS = system: U251 CNS
UACC-257 melanoma = system: UACC-257 melanoma
SK-MEL-28 melanoma = system: SK-MEL-28 melanoma
RXF 393 renal = system: RXF 393 renal
SN12C renal = system: SN12C renal
DU-145 prostate = system: DU-145 prostate
OVCAR-8 ovarian = system: OVCAR-8 ovarian
CAKI-1 renal = system: CAKI-1 renal
NCI-H522 lung = system: NCI-H522 lung
OVCAR-4 ovarian = system: OVCAR-4 ovarian
MCF7 breast = system: MCF7 breast
M14 melanoma = system: M14 melanoma
UACC-62 melanoma = system: UACC-62 melanoma
PC-3 prostate = system: PC-3 prostate
786-0 renal = system: 786-0 renal
MDA-MB-231 breast = system: MDA-MB-231 breast
HCT-116 colon = system: HCT-116 colon
HOP-92 NSCLC = system: HOP-92 NSCLC
TK-10 renal = system: TK-10 renal
SNB-75 CNS = system: SNB-75 CNS
SK-MEL-5 melanoma = system: SK-MEL-5 melanoma
SW-620 colon = system: SW-620 colon

Structure (SMILES): COc1cc2nc(-c3ccc(Cl)cc3)cc(OCCCN3CCCCC3)c2cc1OC
- GI50 (T-47D breast): 1310 nM
- TGI (T-47D breast): > 100000 nM
- GI50 (HOP-62 NSCLC): 2370 nM
- TGI (HOP-62 NSCLC): > 100000 nM
- GI50 (A498 renal): 1400 nM
- TGI (A498 renal): 3820 nM
- GI50 (SNB-19 CNS): 2980 nM
- TGI (SNB-19 CNS): > 100000 nM
- GI50 (NCI-H226 lung): 1120 nM
- TGI (NCI-H226 lung): 3730 nM
- GI50 (COLO 205 colon): 582 nM
- TGI (COLO 205 colon): > 100000 nM
- GI50 (SF-295 CNS): 1210 nM
- TGI (SF-295 CNS): 2810 nM
- GI50 (OVCAR-3 ovarian): 3230 nM
- TGI (OVCAR-3 ovarian): > 100000 nM
- GI50 (SF-268 CNS): 3200 nM
- TGI (SF-268 CNS): > 100000 nM
- GI50 (IGROV1 ovarian): 838 nM
- TGI (IGROV1 ovarian): > 100000 nM
- GI50 (NCI/ADR-RES ovarian): 898 nM
- TGI (NCI/ADR-RES ovarian): > 100000 nM
- GI50 (SR leukemia): 374 nM
- TGI (SR leukemia): 2850 nM
- GI50 (ACHN renal): 2450 nM
- TGI (ACHN renal): > 100000 nM
- GI50 (EKVX NSCLC): 1470 nM
- TGI (EKVX NSCLC): > 100000 nM
- GI50 (NCI-H23 lung): 2950 nM
- TGI (NCI-H23 lung): > 100000 nM
- GI50 (A549 NSCLC): 1900 nM
- TGI (A549 NSCLC): > 100000 nM
- GI50 (OVCAR-5 ovarian): 1160 nM
- TGI (OVCAR-5 ovarian): > 100000 nM
- GI50 (MALME-3M melanoma): 1740 nM
- TGI (MALME-3M melanoma): 4530 nM
- GI50 (KM12 colon): 3070 nM
- TGI (KM12 colon): > 100000 nM
- GI50 (NCI-H460 lung): 842 nM
- TGI (NCI-H460 lung): > 100000 nM
- GI50 (CCRF-CEM leukemia): 2790 nM
- TGI (CCRF-CEM leukemia): > 100000 nM
- GI50 (HCT-15 colon): 604 nM
- TGI (HCT-15 colon): > 100000 nM
- GI50 (HS 578T breast): 2110 nM
- TGI (HS 578T breast): 7180 nM
- GI50 (U251 CNS): 1890 nM
- TGI (U251 CNS): > 100000 nM
- GI50 (UACC-257 melanoma): 1920 nM
- TGI (UACC-257 melanoma): 4460 nM
- GI50 (SK-MEL-28 melanoma): 1450 nM
- TGI (SK-MEL-28 melanoma): 3070 nM
- GI50 (RXF 393 renal): 1080 nM
- TGI (RXF 393 renal): 3900 nM
- GI50 (SN12C renal): 946 nM
- TGI (SN12C renal): > 100000 nM
- GI50 (DU-145 prostate): 2540 nM
- TGI (DU-145 prostate): > 100000 nM
- GI50 (OVCAR-8 ovarian): 1770 nM
- TGI (OVCAR-8 ovarian): > 100000 nM
- GI50 (CAKI-1 renal): 287 nM
- TGI (CAKI-1 renal): 2540 nM
- GI50 (NCI-H522 lung): 3280 nM
- TGI (NCI-H522 lung): > 100000 nM
- GI50 (OVCAR-4 ovarian): 3850 nM
- TGI (OVCAR-4 ovarian): > 100000 nM
- GI50 (MCF7 breast): 1550 nM
- TGI (MCF7 breast): 4110 nM
- GI50 (M14 melanoma): 412 nM
- TGI (M14 melanoma): 1670 nM
- GI50 (UACC-62 melanoma): 1940 nM
- TGI (UACC-62 melanoma): 4420 nM
- GI50 (PC-3 prostate): 1740 nM
- TGI (PC-3 prostate): > 100000 nM
- GI50 (786-0 renal): 2620 nM
- TGI (786-0 renal): > 100000 nM
- GI50 (MDA-MB-231 breast): 666 nM
- TGI (MDA-MB-231 breast): 4000 nM
- GI50 (HCT-116 colon): 828 nM
- TGI (HCT-116 colon): > 100000 nM
- GI50 (HOP-92 NSCLC): 1020 nM
- TGI (HOP-92 NSCLC): 6240 nM
- GI50 (TK-10 renal): 3730 nM
- TGI (TK-10 renal): > 100000 nM
- GI50 (SNB-75 CNS): 1980 nM
- TGI (SNB-75 CNS): 6190 nM
- GI50 (SK-MEL-5 melanoma): 1100 nM
- TGI (SK-MEL-5 melanoma): 2320 nM
- GI50 (SW-620 colon): 3090 nM
- TGI (SW-620 colon): > 100000 nM

From PubChem BioAssay (NCI)
